Measured values reported in patent US5919782A, “Heterocyclic compounds having antidiabetic, hypolipidaemic, antihypertensive properties, process for their preparation and pharmaceutical compositions containing them” (Dr. Reddy's Research Foundation, priority 1996, dated 1999).
Counter-ions that a name gives are not always drawn.

How the values were obtained:
C57 BL/KsJ-db/db mice = experiment: blood sugar and triglycerides lowering activity in db/db mice; format: in vivo, mouse (male C57 BL/KsJ-db/db); details: for Reduction in Blood Glucose Level / Triglyceride Lowering: oral gavage daily for 6 days, db/db mice
Excerpt: Mutation in colonies of laboratory animals and different sensitivities to dietary regimens have made the development of animal models with non-insulin dependent diabetes associated with obesity and insulin resistance possible. Genetic models such as db/db and ob/ob (See Diabetes, (1982) 31(1): 1-6) in mice and fa/fa and zucker rats have been developed by the various laboratories for understanding the pathophysiology of disease and testing the efficacy of new antidiabetic compounds (Diabetes, (1983) 32: 830-838; Annu. Rep. Sankyo Res. Lab. (1994). 46: 1-57). The homozygous animals, C57 BL/KsJ-db/db mice developed by Jackson Laboratory, US, are obese, hyperglycemic, hyperinsulinemic and insulin resistant (J. Clin. Invest., (1990) 85: 962-967), whereas heterozygous are lean and normoglycemic. In db/db model, mice progressively develop insulinopenia with age, a feature commonly observed in late stages of human type II diabetes when blood sugar levels are insufficiently controlled. The state of pancreas and its course vary according to the models. Since this model resembles that of type II diabetes mellitus, the compounds of the present invention were tested for blood sugar and triglycerides lowering activities.
Male C57 BL/KsJ-db/db mice of 8 to 14 weeks age, having body weight range of 35 to 60 grams, procured from the Jackson Laboraotory, USA, were used in the experiment. The mice were provided with standard feed (National Institute of Nutrition, Hyderabad, India) and acidified water, ad libitum. The animals having more than 300 mg/dl blood sugar were used for testing. The number of animals in each group was 4.
The random blood sugar and triglyceride levels were measured by collecting blood (100 μl) through orbital sinus, using heparinised capillary in tubes containing EDTA which was centrifuged to obtain plasma. The plasma glucose and triglyceride levels were measured spectrometrically, by glucose oxidase and glycerol-3-PO4 oxidase/peroxidase enzyme (Dr. Reddy's Lab. Diagnostic Division Kits, Hyderabad, India) methods respectively. On 6th day the blood samples were collected one hour after administration of test compounds/vehicle for assessing the biological activity.
Test compounds were suspended on 0.25% carboxymethyl cellulose or water (for water soluble compounds) and administered to test group at a dose of 10 to 30 mg/kg through oral gavage daily for 6 days. The control group received vehicle (dose 10 ml/kg).
The blood sugar and triglycerides lowering activities of the test compound was calculated according to the formula: [formula] ZC=Zero day control group value DC=Zero day treated group value
TC=Control group value on test day
DT=Treated group value on the test day

rats = experiment: Subacute toxicity in rats; format: in vivo; details: 100 mg/kg orally
Procedure: Groups of 20 rats, consisting of 10 males and 10 females, weighing between 120 to 140 gm, received orally 100 mg/kg of compound of Example 6 for 28 days. The behavioral changes and body weights were monitored daily. The rats were sacrificed on the 29th day and blood was collected for hematological and biochemical estimations. All vital organs were examined both macroscopically and microscopically.

| SMILES | Reduction in Blood Glucose Level (C57 BL/KsJ-db/db mice; 10 mg/kg) [%] | Triglyceride Lowering (C57 BL/KsJ-db/db mice; 10 mg/kg) [%] | Reduction in Blood Glucose Level (C57 BL/KsJ-db/db mice; 30 mg/kg) [%] | Triglyceride Lowering (C57 BL/KsJ-db/db mice; 30 mg/kg) [%] | also measured |
| --- | --- | --- | --- | --- | --- |
| O=C1NC(=O)C(=Cc2ccc(OC[C@@H]3CCCN3c3ccccn3)cc2)S1 [Example 6, 5-[4-[[1-(Pyridin-2-yl)-(2S)-pyrrolidin-2-yl]methoxy]phenylmethylene]thiazolidine-2,4-dione, maleic acid salt] | 49 | 71 | – | – | gross macroscopic and microscopic changes of heart, lungs, bone marrow, kidneys and spleen (rats; 28 days): No gross macroscopic and microscopic changes of heart, lungs, bone marrow, kidneys and spleen were observed; mortality (rats; 28 days): did not produce any mortality; Organ Weight, Heart (rats; 28 days, Control 0.59 ± 0.09): 0.61 ± 0.08 g; RBC (rats; 28 days, Control 7.33 ± 0.75): 7.08 ± 0.93 × 10^6 /mm^3; WBC (rats; 28 days, Control 8.08 ± 2.01): 9.19 ± 2.11 × 10^3 /mm^3; Hemoglobin (rats; 28 days, Control 15.18 ± 0.69): 14.88 ± 0.46 gm/dl; PVC (rats; 28 days, Control 52.06 ± 2.58): 52.21 ± 2.67%; hematological and biochemical parameters, deviations from control (rats; end of 28 days treatment): no significant deviations from the control were observed in hematological and biochemical parameters |
| O=C1NC(=O)C(=Cc2ccc(OC[C@@H]3CCCN3c3ccccn3)cc2)S1 [Example 7, 5-[4-[[1-(Pyridin-2-yl)-(2S)-pyrrolidin-2-yl]methoxy]phenylmethylene]thiazolidine-2,4-dione, hydrochloride salt] | – | – | 67 | 43 | – |
| O=C1NC(=O)C(Cc2ccc(OC[C@@H]3CCCN3c3ccc4ccccc4n3)cc2)S1 (stereo partly drawn) [Example 12, 5-[4-[[1-(Quinolin-2-yl)-(2S)-pyrrolidin-2-yl]methoxy]phenylmethyl]thiazolidine-2,4-dione] | – | – | 27 | 49 | – |
| Cc1cc(N2CCC[C@H]2COc2ccc(CC3SC(=O)NC3=O)cc2)nc2ccccc12 (stereo partly drawn) [Example 20, 5-[4-[[1-(Lepidin-2-yl)-(2S)-pyrrolidin-2-yl]methoxy]phenylmethyl]thiazolidine-2,4-dione, sodium salt] | – | – | 30 | 62 | – |
| O=C1NC(=O)C(=Cc2ccc(O[C@H]3CCN(c4ccccn4)C3)cc2)S1 [Example 23, 5-[4-[1-(Pyridin-2-yl)-(3S)-pyrrolidin-3-yloxy]phenylmethylene]thiazolidine-2,4-dione, hydrochloride salt] | 46 | 10 | – | – | – |
| O=C1NC(=O)C(Cc2ccc(OCC3CN(c4ccccn4)CCO3)cc2)S1 (stereo not drawn) [Example 27, 5-[4-[[4-(Pyridin-2-yl)morpholin-2yl]methoxy]phenylmethyl]thiazolidine-2,4-dione, sodium salt] | 56 | 29 | – | – | – |
| Cc1c(C)c2c(c(C)c1O)CCC(C)(COc1ccc(CC3SC(=O)NC3=O)cc1)O2 (stereo not drawn) [Troglitazone, reference compound] | – | – | – | – | reduction in random blood sugar level (C57 BL/KsJ-db/db mice; 100 mg/kg daily dose, standard drug, on 6th day): 28% |
